Data: patent US20230031406A1, “COMPOUNDS AND COMPOSITIONS FOR TREATING CONDITIONS ASSOCIATED WITH NLRP ACTIVITY” (Novartis AG, priority 2018, published 2023)
Read-outs that look alike come from different tables or passages of the source. Each block holds one molecule with its values, some of them ahead of it.

Tested on: PMA-differentiated THP-1 cells
Test: IL-1β production in PMA-differentiated THP-1 cells stimulated with gramicidin (hTHP-1 assay containing 2% fetal bovine serum; Procedures 1 and 2)
Type: cell-based, human
Method in brief: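 PMA-primed (20 ng/ml, 16-18 h) THP-1 cells in RPMI with 2% FBS, 50,000 cells/well, were preincubated 1 h with compound (0.0017-100 μM final, 0.37% DMSO), then stimulated 2 h with 5 μM gramicidin. Supernatant IL-1β measured by HTRF.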

[1] = Homo sapiens, THP-1, Table B2, 2% fetal bovine serum, class symbols, read-out: hTHP-1 IC50
[2] = Homo sapiens, THP-1, Table B2, 2% fetal bovine serum, numeric bounds, read-out: hTHP-1 IC50
[3] = Homo sapiens, THP-1, Table B4, 2% fetal bovine serum, class symbols, read-out: hTHP-1 IC50
[4] = Table B2, 2% fetal bovine serum, class symbols, read-out: hTHP-1 IC50
[5] = Table B1, 2% fetal bovine serum, class symbols, read-out: Average IC50 of compounds in hTHP-1 assay: hTHP-1 IC50
[6] = Homo sapiens, THP-1, Table B1, 2% fetal bovine serum, numeric bounds, read-out: Average IC50 of compounds in hTHP-1 assay: hTHP-1 IC50

Compound: NS(=O)(=NC(=O)Nc1c2c(nc(C(F)(F)F)c1-c1ccccc1)CCC2)c1nn(C(F)F)cc1F (single isomer, unassigned) [Example 766, (S) or (R)-1-(difluoromethyl)-4-fluoro-N′-((3-phenyl-2-(trifluoromethyl)-6,7-dihydro-5H-cyclopenta[b]pyridin-4-yl)carbamoyl)-1H-pyrazole-3-sulfonimidamide]
- IC50 (Table B4, 2% fetal bovine serum, class symbols, read-out: hTHP-1 IC50): 1 to 5 µM

Compound: NS(=O)(=NC(=O)Nc1c2c(nc3c1CCC31CC1)CCC2)c1cnn(C(F)F)c1 (single isomer, unassigned) [Compound 638b, (S) or (R)-1-(Difluoromethyl)-N′-((1′,5′,6′,7′-tetrahydro-2′H-spiro[cyclopropane-1,3′-dicyclopenta[b,e]pyridin]-8′-yl)carbamoyl)-1H-pyrazole-4-sulfonimidamide]
- IC50 [2]: > 30 µM

Compound: CC(O)c1nc(C(C)(C)O)sc1S(=N)(=O)NC(=O)Nc1c2c(nc3c1CCC3)CCC2 (single isomer, unassigned) [Compound 643b, (S, R/S) or (R, R/S)-N-((1,2,3,5,6,7-hexahydrodicyclopenta [b,e]pyridin-8-yl)carbamoyl)-4-(1-hydroxyethyl)-2-(2-hydroxypropan-2-yl) thiazole-5-sulfonimidamide]
- IC50 [4]: 5 to 30 µM

Compound: CCn1cc(F)c(S(N)(=O)=NC(=O)Nc2c(C)c(C(F)(F)F)nc3c2CC(C)C3)n1 (single isomer, unassigned) [Compound 1101a]
- IC50 (Homo sapiens, THP-1, read-out: hTHP-1 IC50 in 2% FBS, hTHP-1 assay containing 2% fetal bovine serum, Table B5): 0.04 to 0.2 µM

Compound: CC(C)(O)c1cc(F)c(S(N)(=O)=NC(=O)Nc2c3c(nc4c2CCC4)CCC3)s1 (single isomer, unassigned) [Compound 105a, (R) or (S)-3-fluoro-N′-((1,2,3,5,6,7-hexahydro-dicyclopenta[b,e]pyridin-8-yl)carbamoyl)-5-(2-hydroxypropan-2-yl)thio-phene-2-sulfonimidamide]
- IC50 [5]: 0.04 to 0.2 µM

Compound: Cc1c(C(F)(F)F)nc2c(c1NC(=O)N=S(N)(=O)c1nn(C(F)F)cc1F)CCC2 (single isomer, unassigned) [Example 563]
- IC50 (Table B3, hTHP-1 assay, 2% fetal bovine serum, class symbols, read-out: IC50): 5 to 30 µM

Compound: CC(C)n1cc(Cl)c(S(N)(=O)=NC(=O)Nc2c3c(nc4c2CCC4)CCC3)n1 (single isomer, unassigned) [Compound 694b, (R) or (S)-4-Chloro-N′-((1,2,3,5,6,7-hexahydrodicyclopenta [b,e]pyridin-8-yl)carbamoyl)-1-isopropyl-1H-pyrazole-3-sulfonimidamide]
- IC50 [1]: 1 to 5 µM

Compound: CC1CCc2c1nc1c(c2NC(=O)N=S(N)(=O)c2ccc(CN(C)C)cc2)CCC1 (single isomer, unassigned) [Compound 134bb, (R,S) or (R,R)-4-((dimethyl-amino)methyl)-N′-((3-methyl-1,2,3,5,6,7-hexa-hydrodicyclo-penta[b,e]pyridin-8-yl)carbamoyl)benzene-sulfonamidamide]
- IC50 [5]: 5 to 30 µM

Compound: Cc1cc(C(C)(C)O)sc1S(N)(=O)=NC(=O)Nc1c2c(nc3c1CCC3)CCC2 (single isomer, unassigned) [Compound 695a, (S) or (R)-N′-((1,2,3,5,6,7-hexahydrodicyclopenta [b,e]pyridin-8-yl)carbamoyl)-5-(2-hydroxypropan-2-yl)-3-methylthiophene-2-sulfonimidamide]
- IC50 [2]: > 30 µM

Compound: CC(C)n1cc(Cl)c(S(N)(=O)=NC(=O)Nc2c3c(nc4c2CCC4)CCC3)n1 (single isomer, unassigned) [Compound 694a, (S) or (R)-4-Chloro-N′-((1,2,3,5,6,7-hexahydrodicyclopenta [b,e]pyridin-8-yl)carbamoyl)-1-isopropyl-1H-pyrazole-3-sulfonimidamide]
- IC50 [2]: > 30 µM

Second part, the molecule after the results:

- IC50 [1]: 5 to 30 µM
Compound: Cc1c(C(F)(F)F)nc2c(c1NC(=O)N=S(N)(=O)c1cnn(C(F)F)c1)CCC2 (stereo not drawn) [Compound 617, 1-(Difluoromethyl)-N′-((3-methyl-2-(trifluoromethyl)-6,7-dihydro-5H-cyclopenta[b]pyridin-4-yl)carbamoyl)-1H-pyrazole-4-sulfonimidamide]

- IC50 [1]: 1 to 5 µM
Compound: CC(C)(O)c1ncc(S(N)(=O)=NC(=O)Nc2nc3c(c4c2CCC4)CCC3)s1 (stereo not drawn) [Compound 677, N′-((1,2,3,5,6,7-hexahydrodicyclopenta[b,d]pyridin-5-yl)carbamoyl)-2-(2-hydroxypropan-2-yl)thiazole-5-sulfonimidamide]

- IC50 [3]: 0.2 to 1 µM
Compound: CC(C)n1cc(F)c(S(N)(=O)=NC(=O)Nc2c3c(nc4c2CCC4)CCC3)n1 (stereo not drawn) [Example 750, 4-Fluoro-N′-((1,2,3,5,6,7-hexahydrodicyclopenta[b,e]pyridin-8-yl)carbamoyl)-1-isopropyl-1H-pyrazole-3-sulfomidamide]

- IC50 [1]: 0.2 to 1 µM
Compound: Cc1nc2c(c(NC(=O)N=S(N)(=O)c3cnc(C(C)(O)CO)s3)c1C(C)C)CCC2 (stereo not drawn) [Compound 627, 2-(1,2-Dihydroxypropan-2-yl)-N′-((3-isopropyl-2-methyl-6,7-dihydro-5H-cyclopenta[b]pyridin-4-yl)carbamoyl)thiazole-5-sulfonimidamide]

- IC50 [4]: 0.04 to 0.2 µM
Compound: CC(C)(O)c1cncc(S(N)(=O)=NC(=O)Nc2c3c(nc4c2CCC4(C)C)CCC3)c1 (single isomer, unassigned) [Compound 684a, (R) or (S)-N′-((3,3-dimethyl-1,2,3,5,6,7-hexahydrodicyclopenta [b,e]pyridin-8-yl)carbamoyl)-5-(2-hydroxypropan-2-yl)pyridine-3-sulfonimidamide]

- IC50 [5]: 0.04 to 0.2 µM
Compound: CC(C)(O)c1csc(S(N)(=O)=NC(=O)Nc2c3c(nc4c2CCC42CC2)CCC3)c1 (single isomer, unassigned) [Compound 114a, (R) or (S)-4-(2-hydroxy-propan-2-yl)-N′-((1′,5′,6′,7′-tetrahydro-2′H-spiro[cyclopropane-1,3′-dicyclopenta[b,e]pyridin]-8′-yl)carbamoyl)thiophene-2-sulfonimidamide]

- IC50 [6]: > 30 µM
Compound: CC(C)(O)c1ncc(S(N)(=O)=NC(=O)Nc2cc(-c3ccccc3)nc3c2CCC3)s1 (stereo not drawn) [Compound 142, 2-(2-hydroxypropan-2-yl)-N′-((2-phenyl-6,7-dihydro-5H-cyclopenta[b]pyridin-4-yl)carbamoyl)thiazole-5-sulfonimidamide]

- IC50 [1]: 1 to 5 µM
Compound: Cc1c(C(F)F)nc2c(c1NC(=O)N=S(N)(=O)c1cnc(C(C)(C)O)s1)CCC2 (single isomer, unassigned) [Compound 647a, (R) or (S)-N′-((2-(difluoromethyl)-3-methyl-6,7-dihydro-5H-cyclopenta[b]pyridin-4-yl)carbamoyl)-2-(2-hydroxypropan-2-yl)thiazole-5-sulfonimidamide]

- IC50 [4]: 1 to 5 µM
Compound: CC(C)(O)c1cc(Cl)c(S(N)(=O)=NC(=O)Nc2c3c(nc4c2CCC4)CCC3)s1 (single isomer, unassigned) [Compound 691b, (R) or (S)-3-Chloro-N′-((1,2,3,5,6,7-hexahydrodicyclopenta [b,e]pyridin-8-yl)carbamoyl)-5-(2-hydroxypropan-2-yl)thiophene-2-sulfonimidamide]

- IC50 [6]: > 30 µM
Compound: NS(=O)(=NC(=O)Nc1c2c(nc3c1CCC31CC1)CCC2)c1ccn(C(F)F)n1 (single isomer, unassigned) [Compound 180b, (S) or (R)-1-(difluoromethyl)-N′-((1′,5′,6′,7′-tetrahydro-2′H-spiro[cyclopropane-1,3′-dicyclopenta[b,e]pryidin]-8′-yl)carbamoyl)-1H-pyrazole-3-sulfonimidamide]

- IC50 [3]: 1 to 5 µM
Compound: C[C@H]1CCc2c1nc1c(c2NC(=O)N=S(N)(=O)c2cnc([C@](C)(O)CO)s2)CCC1 (single isomer, unassigned) [Example 732]
